Data taken from US20230114674A1, “ISOINDOLINE DERIVATIVE, AND PHARMACEUTICAL COMPOSITION AND USE THEREOF” (KANGPU BIOPHARMACEUTICALS, LTD., priority 2020, published 2023).

Key:
MM.1S myeloma cells [1] = experiment: Cell proliferation inhibition test by MTS assay; type: cell-based; conditions: Homo sapiens, MM1.S, 72 hours drug treatment, 15,000 cells/well, 96-well plate
Method: Experimental Method for Cell Proliferation Inhibition Test by MTS Assay:
Proliferating MM.1S myeloma cells (ATCC, Cat #CRL-2974) were resuspended in RPMI-640 medium (Gibco, Cat #A10491-01) and counted using an automated cell counter. The cell suspension was diluted to the needed density and 100 μl (15,000 cells) of the cell suspension was plated per well in a 96-well plate. The plate was cultured in a 37° C., 5% CO2 incubator for 24 hours. On the day of administration, each compound was formulated into 20 mM stock solution with DMSO (Sigma, Cat #D2650), diluted with a medium to the needed concentration, and then added to the corresponding wells for the cell proliferation inhibition test with a drug of 4-fold serial dilution with 10 points. The final concentration of DMSO was 0.5%. After drug addition, the 96-well plate was cultured in a 37° C., 5% CO2 incubator for 72 hours. Then, 20 μl of MTS (Promega, Cat #G3581) was added to each well and the plate was cultured for 2 hours in a 37° C., 5% CO2 incubator, and then the absorbance at 490 nm of each well was recorded using an Ensight instrument. The reading of the cells at Day 0 was used as a negative control and the reading of cells with 0.5% DMSO at Day-3 was used as a positive control. Cell proliferation inhibition curve was plotted using GraphPad Prism 5 software and the IC50 value was calculated. Experiment results can be seen in Table 1.

MM.1S myeloma cells [2] = experiment: Cell proliferation inhibition test by CTG (CellTiter-Glo) assay; type: cell-based; conditions: Homo sapiens, MM1.S, 120 hours drug treatment, 4,000 cells/well, 384-well plate, read-out: MM.2S IC50
Method: Experimental Method for Cell Proliferation Inhibition Test by CTG Assay:
The proliferation inhibitory activity of the compounds in the MM.1S myeloma cell model was determined by CellTiter-Glo (CTG) Luminescent Cell Viability Assay (Promega). MM.1S cells (ATCC, Cat #CRL-2974) at exponential phase were resuspended in RPMI-1640 (Gibco, Cat #11875-093)+10% FBS+1% penicillin/streptomycin+2 mM Glutamax medium and counted using an automated cell counter (ViCellXR). According to the optimized cell plating density in the pre-experiments, 40 μl of cell suspension at a density of 100,000 cells/ml was plated in the corresponding wells of a 384-well plate (4,000 cells/well) to ensure that cells in the control group were at linear growth phase within the five-day experimental period. The plated 384-well plate was cultured in a 37° C., 5% CO2 incubator for 24 hours. On the day of administration, each compound was formulated into 10 mM stock solution with DMSO (Sigma, Cat #276855-1L) and the stock solution was further diluted with DMSO to 20 μM and 20 nM working solutions. Drug treatment of MM.1S cells started at a concentration of up to 100 nM and the drug was serial diluted 4-fold with 10 points, with three replicate wells. Nanoliter volumes of compound solutions were added to the corresponding wells of the 384-well plate according to the needed concentration in a non-contact spraying manner by an HPD300 microscale automated dispenser (Tecan). The final concentration of DMSO was 0.5%. After drug addition, the 384-well plate was cultured in a 37° C., 5% CO2 incubator for 120 hours. After five days of drug treatment, 25 μl of CTG reagent (Promega, Cat #G7573) was added to each well, and the plate was shaken on a plate shaker for 10 minutes to ensure that the cells were fully lysed, and then left to stand at room temperature for 10 minutes to ensure a sufficient reaction of CTG with the substrate and the generation of a stable luminescent signal. The signal is proportional to the amount of ATP in the cell lysate, i.e., the number of metabolically active cells. Chemiluminescence of the cells in the plate was detected by an EnSpire instrument. The reading of the cells at Day 0 was used as a control for cells at growth starting point and the reading of cells with 0.5% DMSO at Day 5 was used as a control for cells under growth. Cell proliferation inhibition curve was plotted using XLFit software and the IC50 value was calculated. Experiment results can be seen in Table 2.

IC50 (MM.1S myeloma cells [1]) [nM]	IC50 (MM.1S myeloma cells [2]) [nM]	Compound
0.0271		N#Cc1ccc(N2CCN(Cc3ccc(COc4cccc5c4CN([C@H]4CCC(=O)NC4=O)C5=O)c(F)c3)CC2)cc1OCC1CC1 [CM-13]
0.0962		CCc1cc(C#N)ccc1N1CCN(Cc2ccc(COc3cccc4c3CN([C@H]3CCC(=O)NC3=O)C4=O)c(F)c2)CC1 [CM-35]
1.21		C=Cc1ccc(N2CCN(Cc3ccc(COc4cccc5c4CN([C@H]4CCC(=O)NC4=O)C5=O)c(F)c3)CC2)c(F)c1 [CM-38]
0.0291		N#Cc1ncc(N2CCN(Cc3ccc(COc4cccc5c4CN([C@H]4CCC(=O)NC4=O)C5=O)cc3F)CC2)cc1C(F)(F)F [CM-25]
0.0388		NC(=O)c1ccc(N2CCN(Cc3ccc(COc4cccc5c4CN([C@H]4CCC(=O)NC4=O)C5=O)c(F)c3)CC2)c(F)c1 [CM-24]
0.0139		O=C1CC[C@H](N2Cc3c(OCc4ccc(CN5CCN(c6ccc([N+](=O)[O-])cc6F)CC5)cc4F)cccc3C2=O)C(=O)N1 [CM-2, (S)-3-(4-((2-fluoro-4-((4-(2-fluoro-4-nitrophenyl)piperazin-1-yl)methyl)benzyl)oxy)-1-oxoisoindolin-2-yl)piperidine-2,6-dione]
0.0111		COc1cc(N2CCN(Cc3ccc(COc4cccc5c4CN([C@H]4CCC(=O)NC4=O)C5=O)cc3F)CC2)ccc1C#N [CM-21]
0.201		N#Cc1ccc(N2CCN(Cc3ccc(COc4cccc5c4CN(C4CCC(=O)NC4=O)C5=O)c(F)c3)CC2)nc1 (stereo not drawn) [CM-29]
0.134		COc1cc(C#N)ccc1N1CCN(Cc2ccc(COc3cccc4c3CN([C@H]3CCC(=O)NC3=O)C4=O)c(F)c2)CC1 [CM-27]
0.0781		N#Cc1ccc(N2CCN(Cc3ccc(COc4cccc5c4CN([C@H]4CCC(=O)NC4=O)C5=O)c(F)c3)CC2)c(C(N)=O)c1 [CM-33]
0.0063		N#Cc1ccc(N2CCN(Cc3ccc(COc4cccc5c4CN([C@H]4CCC(=O)NC4=O)C5=O)c(F)c3)CC2)cc1F [CM-5, (S)-4-(4-(4-(((2-(2,6-dioxopiperidin-3-yl)-1-oxoisoindolin-4-yl)oxy)methyl)-3-fluorobenzyl)piperazin-1-yl)-2-fluorobenzonitrile]
0.0188		NC(=O)c1ccc(N2CCN(Cc3ccc(COc4cccc5c4CN([C@H]4CCC(=O)NC4=O)C5=O)c(F)c3)CC2)cc1F [CM-18, (S)-4-(4-(4-(((2-(2,6-dioxopiperidin-3-yl)-1-oxoisoindolin-4-yl)oxy)methyl)-3-fluorobenzyl)piperazin-1-yl)-2-fluorobenzamide]
0.378		N#Cc1ccc(N2CCN(Cc3ccc(COc4cccc5c4CN([C@H]4CCC(=O)NC4=O)C5=O)c(F)c3)CC2)c(O)c1 [CM-40]
0.0054		COc1cc(N2CCN(Cc3ccc(COc4cccc5c4CN([C@H]4CCC(=O)NC4=O)C5=O)c(F)c3)CC2)ccc1C#N [CM-7, (S)-4-(4-(4-(((2-(2,6-dioxopiperidin-3-yl)-1-oxoisoindolin-4-yl)oxy)methyl)-3-fluorobenzyl)piperazin-1-yl)-2-methoxybenzonitrile]
	0.0687	CCOc1cc(N2CCN(Cc3ccc(COc4cccc5c4CN([C@H]4CCC(=O)NC4=O)C5=O)cc3F)CC2)ccc1C#N [CM-46]
0.102		N#Cc1ccc(N2CCN(Cc3ccc(COc4cccc5c4CN([C@H]4CCC(=O)NC4=O)C5=O)c(Cl)c3)CC2)c(F)c1 [CM-1]
0.102		N#Cc1ccc(N2CCN(Cc3ccc(COc4cccc5c4CN([C@H]4CCC(=O)NC4=O)C5=O)c(F)c3)CC2)cn1 [CM-28]
0.0067		CCOc1cc(N2CCN(Cc3ccc(COc4cccc5c4CN([C@H]4CCC(=O)NC4=O)C5=O)c(F)c3)CC2)ccc1C#N [CM-12]
0.0132		N#Cc1ccc(N2CCN(Cc3ccc(COc4cccc5c4CN([C@H]4CCC(=O)NC4=O)C5=O)cc3F)CC2)cc1F [CM-20]
0.0064		N#Cc1ccc(N2CCN(Cc3ccc(COc4cccc5c4CN([C@H]4CCC(=O)NC4=O)C5=O)c(F)c3)CC2)c(F)c1 [CM-3, (S)-4-(4-(4-(((2-(2,6-dioxopiperidin-3-yl)-1-oxoisoindolin-4-yl)oxy)methyl)-3-fluorobenzyl)piperazin-1-yl)-3-fluorobenzonitrile]
0.0091		Cc1cc(N2CCN(Cc3ccc(COc4cccc5c4CN([C@H]4CCC(=O)NC4=O)C5=O)c(F)c3)CC2)ccc1C#N [CM-11]
0.0105		N#Cc1ccc(N2CCN(Cc3ccc(COc4cccc5c4CN([C@H]4CCC(=O)NC4=O)C5=O)c(F)c3)CC2)cc1 [CM-10]
0.109		N#Cc1ccc(N2CCN(Cc3ccc(COc4cccc5c4CN([C@H]4CCC(=O)NC4=O)C5=O)c(F)c3)CC2)c(C#N)c1 [CM-30]

Further lines, the compound ahead of its results:

Compound	IC50 (MM.1S myeloma cells [1]) [nM]	IC50 (MM.1S myeloma cells [2]) [nM]
N#Cc1ccc(N2CCN(Cc3ccc(COc4cccc5c4CN([C@H]4CCC(=O)NC4=O)C5=O)c(F)c3)CC2)c(C(F)(F)F)c1 [CM-8]	0.0211	
CCc1cc(N2CCN(Cc3ccc(COc4cccc5c4CN([C@H]4CCC(=O)NC4=O)C5=O)c(F)c3)CC2)ccc1C#N [CM-41]	0.116	
CCOc1nc(N2CCN(Cc3ccc(COc4cccc5c4CN([C@H]4CCC(=O)NC4=O)C5=O)cc3F)CC2)ccc1OC [CM-26]	0.465	
O=C1CC[C@H](N2Cc3c(OCc4ccc(CN5CCN(c6ccc(C(F)(F)F)c(F)c6)CC5)cc4F)cccc3C2=O)C(=O)N1 [CM-16]	0.189	
C#Cc1ccc(N2CCN(Cc3ccc(COc4cccc5c4CN([C@H]4CCC(=O)NC4=O)C5=O)c(F)c3)CC2)c(F)c1 [CM-43]	0.576	
CNC(=O)c1ccc(N2CCN(Cc3ccc(COc4cccc5c4CN([C@H]4CCC(=O)NC4=O)C5=O)cc3F)CC2)cc1F [CM-45]		0.0938
N#Cc1ccc(N2CCN(Cc3ccc(COc4cccc5c4CN([C@H]4CCC(=O)NC4=O)C5=O)c(F)c3)CC2)c(Cl)c1 [CM-9]	0.0136	
CCOc1cc(C#N)ccc1N1CCN(Cc2ccc(COc3cccc4c3CN([C@H]3CCC(=O)NC3=O)C4=O)c(F)c2)CC1 [CM-36]	0.148	
N#Cc1ccc(N2CCN(Cc3ccc(COc4cccc5c4CN([C@H]4CCC(=O)NC4=O)C5=O)c(F)c3)CC2)cc1Cl [CM-39]	0.0631	
N#Cc1ccc(N2CCN(Cc3ccc(COc4cccc5c4CN([C@H]4CCC(=O)NC4=O)C5=O)c(F)c3)CC2)c(F)c1C(F)(F)F [CM-47]		0.135
N#Cc1ccc(N2CCN(Cc3ccc(COc4cccc5c4CN([C@H]4CCC(=O)NC4=O)C5=O)c(F)c3)CC2)cc1C(F)(F)F [CM-6, (S)-4-(4-(4-(((2-(2,6-dioxopiperidin-3-yl)-1-oxoisoindolin-4-yl)oxy)methyl)-3-fluorobenzyl)piperazin-1-yl)-2-(trifluoromethyl)benzonitrile]	0.0409	
N#Cc1ccc(N2CCN(Cc3ccc(COc4cccc5c4CN([C@H]4CCC(=O)NC4=O)C5=O)c(F)c3)CC2)cc1C1CC1 [CM-37]	0.119	
NC(=O)c1ccc(N2CCN(Cc3ccc(COc4cccc5c4CN([C@H]4CCC(=O)NC4=O)C5=O)cc3F)CC2)c(F)c1 [CM-23]	0.0581	
[2H]C([2H])([2H])Oc1cc(N2CCN(Cc3ccc(COc4cccc5c4CN([C@H]4CCC(=O)NC4=O)C5=O)c(F)c3)CC2)ccc1C#N [CM-15]	0.0062	
CNC(=O)c1cc(C#N)ccc1N1CCN(Cc2ccc(COc3cccc4c3CN([C@H]3CCC(=O)NC3=O)C4=O)c(F)c2)CC1 [CM-34]	0.0766	
N#Cc1ccc(N2CCN(Cc3ccc(COc4cccc5c4CN([C@H]4CCC(=O)NC4=O)C5=O)cc3F)CC2)c(F)c1 [CM-4, (S)-4-(4-(4-(((2-(2,6-dioxopiperidin-3-yl)-1-oxoisoindolin-4-yl)oxy)methyl)-2-fluorobenzyl)piperazin-1-yl)-3-fluorobenzonitrile]	0.0153	
